From PMC8657793, “Synthesis, In Vitro and In Silico Anticancer Activity of New 4-Methylbenzamide Derivatives Containing 2,6-Substituted Purines as Potential Protein Kinases Inhibitors” (International Journal of Molecular Sciences, 2021)

Experiments:
[1] = system: HL-60 (promyelocytic leukemia); assay: MTT anti-proliferative assay, HL-60; format: cell-based; settings: Homo sapiens, 48 h
Method: (§1) For the in vitro assays, a stock solution (1% DMSO in the appropriate buffer with the tested compound diluted under sonication) was prepared from which several dilutions were made with the appropriate buffer.
(§2) Human cell lines were obtained from the Institute of Cytology, Russian Academy of Sciences. […] Plates were incubated under standard conditions for 48 h.

[2] = system: RPMI 1788 (B lymphocyte, normal human lymphoblastoid cells); assay: MTT assay on normal cells RPMI 1788; format: cell-based
Method: (§3) To determine the selectivity of the synthesized compounds 7–16 toward various cancer cells and normal human cells, the anti-proliferative activity against K562 (chronic myelogenous leukemia), HL-60 (promyelocytic leukemia), MCF-7 (breast adenocarcinoma), HeLa (cervix carcinoma), HepG2 (human liver cancer), A549 (lung carcinoma), OKP-GS (renal cell carcinoma), and normal cells RPMI 1788 (B lymphocyte, the human cell line) was investigated.
as §1, with “Each in vitro experiment was performed at least in triplicate and the standard deviation of absorbance was less than 10% of the mean. For” for “For”
Human cell lines were obtained from the Institute of Cytology, Russian Academy of Sciences. The cell lines studied were maintained in RPMI 1640 medium (AppliChem, Darmstadt, Germany) supplemented with 20% (HL-60, RPMI 1788) fetal calf serum (HyClone, Cramlington, UK), in DMEM (A 549) and Eagle’s MEM (AppliChem) (MCF7, HeLa) with 10% fetal calf serum (HyClone). Cells were cultivated at 37 °C in a humidified atmosphere of 5% CO2. Cellular sensitivities to synthesized compounds and standards were measured with the MTT assay. Cells were plated in triplicate in 96-well plates (10^5 cells/well for suspended cell cultures and 5 × 10^3 cells/well for monolayer cultures); on the same day (suspended cell cultures) or on the following day (monolayer cultures), compounds were added at the appropriate dilutions. […] The reference drugs were imatinib, sorafenib and nilotinib. Plates were incubated under standard conditions for 48 h. Thereafter, 10 μL MTT (Sigma) in phosphate-buffered saline (5 mg/mL) was added. The plates were incubated for an additional 4 h and 150 μL dimethylsulphoxide (DMSO) was added to dissolve the formazan crystals. The optical density was read on a HALO MPR-95 Microplate Reader (Dynamica Scientific Ltd., Melbourne, Victoria, Australia) at 570 nm. The antiproliferative effects were taken as degrees of inhibition of tumor cells (%). The average of three parallel measurements was calculated for each concentration of test compound. The degree of cell growth suppression was plotted as a function of the logarithm of the concentration. The half maximal inhibitory concentration (IC50) was determined graphically for active compounds.

[3] = system: K562 (chronic myelogenous leukemia); assay: MTT anti-proliferative assay, K562; format: cell-based; settings: Homo sapiens, 48 h
Method: as §1, §2

[4] = system: OKP-GS (renal cell carcinoma); assay: MTT anti-proliferative assay, OKP-GS; format: cell-based; settings: Homo sapiens, 48 h
Method: as §3
as §1, with “Each in vitro experiment was performed at least in triplicate and the standard deviation of absorbance was less than 10% of the mean. For” for “For”
Human cell lines were obtained from the Institute of Cytology, Russian Academy of Sciences. The cell lines studied were maintained in RPMI 1640 medium (AppliChem, Darmstadt, Germany) supplemented with 20% (HL-60, RPMI 1788) fetal calf serum (HyClone, Cramlington, UK), in DMEM (A 549) and Eagle’s MEM (AppliChem) (MCF7, HeLa) with 10% fetal calf serum (HyClone). Cells were cultivated at 37 °C in a humidified atmosphere of 5% CO2. Cellular sensitivities to synthesized compounds and standards were measured with the MTT assay. Cells were plated in triplicate in 96-well plates (10^5 cells/well for suspended cell cultures and 5 × 10^3 cells/well for monolayer cultures); on the same day (suspended cell cultures) or on the following day (monolayer cultures), compounds were added at the appropriate dilutions. Anti-proliferative activity was studied at concentrations 0.1–50.0 µM. The reference drugs were imatinib, sorafenib and nilotinib. Plates were incubated under standard conditions for 48 h. Thereafter, 10 μL MTT (Sigma) in phosphate-buffered saline (5 mg/mL) was added. The plates were incubated for an additional 4 h and 150 μL dimethylsulphoxide (DMSO) was added to dissolve the formazan crystals. The optical density was read on a HALO MPR-95 Microplate Reader (Dynamica Scientific Ltd., Melbourne, Victoria, Australia) at 570 nm. The antiproliferative effects were taken as degrees of inhibition of tumor cells (%). The average of three parallel measurements was calculated for each concentration of test compound. The degree of cell growth suppression was plotted as a function of the logarithm of the concentration. The half maximal inhibitory concentration (IC50) was determined graphically for active compounds.

[5] = target: T1, HER2 (Homo sapiens, UniProt P04626); assay: Kinase Selectivity Profiling System TK-1 / ADP-Glo, HER2; format: biochemical
T1 construct: purchased Promega
Method: (§4) At the end, 10 μL of kinase detection reagent was added into the well and incubated for 30 min to produce a luminescence signal.

[6] = target: T2, PDGFRβ (Homo sapiens, UniProt P09619); assay: Kinase Selectivity Profiling System TK-1 / ADP-Glo, PDGFRβ; format: biochemical
T2 construct: purchased Promega
Method: as §4

[7] = target: T3, Bcr–Abl1 kinase (Homo sapiens, UniProt P00519); assay: Abl1 Kinase Enzyme System / ADP-Glo kinase assay; format: biochemical; settings: ATP 50 μM; for inhibition at 0.5 µM: 0.5 µM compound; for inhibition at 10 µM: 10 µM compound
T3 construct: purchased Promega
Method: as §4

[8] = target: T4, HER4 (Homo sapiens, UniProt Q15303); assay: Kinase Selectivity Profiling System TK-1 / ADP-Glo, HER4; format: biochemical
T4 construct: purchased Promega
Method: as §4

[9] = target: T5, EGFR (Homo sapiens, UniProt P00533); assay: Kinase Selectivity Profiling System TK-1 / ADP-Glo, EGFR; format: biochemical
T5 construct: purchased Promega
Method: as §4

[10] = target: T6, IGF1R (Homo sapiens, UniProt P08069); assay: Kinase Selectivity Profiling System TK-1 / ADP-Glo, IGF1R; format: biochemical
T6 construct: purchased Promega
Method: as §4

[11] = target: T7, InsR (Homo sapiens, UniProt P06213); assay: Kinase Selectivity Profiling System TK-1 / ADP-Glo, InsR; format: biochemical
T7 construct: purchased Promega
Method: as §4

[12] = target: T8, PDGFRα (Homo sapiens, UniProt P16234); assay: Kinase Selectivity Profiling System TK-1 / ADP-Glo, PDGFRα; format: biochemical
T8 construct: purchased Promega
Excerpt: Considering the presence of a purine ring in the compounds under study, type 1 binding to protein kinases could be expected. We investigated the kinase selectivity of targeted compounds 7–16 against eight receptor tyrosine kinases including EGFR, HER2 and HER4 (epidermal growth factor receptors), IGF1R (insulin-like growth factor 1 receptor), InsR (insulin receptor), KDR (vascular endothelial growth factor receptor 2—VEGFR-2), and PDGFRα and PDGFRβ (platelet-derived growth factor receptors). The assay was performed using the Kinase Selectivity Profiling System TK-1 (Promega, Madison, WI, USA) and ADP-Glo™ Kinase assay kit (Promega, Madison, WI, USA). Kinase activity was measured by quantifying the […] following a kinase reaction. Enzymatic activity inhibition percentage caused by studied compounds was evaluated at the single concentration of 1 μM.
The Abl1 inhibitory activity assay was performed using Abl1 Kinase Enzyme System (Promega, Madison, WI, USA) and ADP-Glo™ Kinase assay kit (Promega, Madison, WI, USA) according to the Technical Manual. The general procedure was as follows: kinase (2.5 ng/reaction) was incubated with substrate (1 μg), compound (0.5 and 10µM) and ATP (50 μM) in a commercial buffer solution with a reaction volume of 5 μL. In every experiment, no-enzyme and no-compound control reactions were included to represent background luminescence (0% activity) and uninhibited kinase activity (100% activity), respectively. The assay 384-well plate was incubated at room temperature for 1 h. Afterwards, 5μL of ADP-Glo reagent was added into each well to stop the reaction and consume the […] within 40 min. At the end, 10 μL of kinase detection reagent was added into the well and incubated for 30 min to produce a luminescence signal. Kinase activity assays were performed in triplicate at each inhibitor concentration. The luminescence was measured with the help of a Tecan Infinite M200 Plate Reader. The luminescence data were analyzed using the computer software, Magellan™. Percent kinase activity (KA) was calculated by subtracting the average no-enzyme control luminescence values from all kinase-containing reactions with or without compound, then converting these net luminescence values to percent activity based on the no-compound control reactions representing 100% kinase activity. Inhibition (I, %) was calculated as 100%-KA.
The single-dose screening of kinase selectivity was performed using Kinase Selectivity Profiling System TK-1 (Promega, Madison, WI, USA) and ADP-Glo™ Kinase assay kit (Promega, Madison, WI, USA) according to Technical Manual. Kinase Selectivity Profiling System TK-1 includes a set of kinases from the tyrosine kinase family (EGFR, HER2, HER4, IGF1R, InsR, KDR, PDGFα, PDGFβ) in 8-tube strip format. The general procedure was as follow: kinase working stock (2 µL/reaction) was incubated with ATP/substrate working stock (1 µL) and compound (1 µM) in a commercial buffer solution with a reaction volume of 5 μL. The reaction conditions and inhibition (%) calculation were the same as in Section 3.3.1. Kinase activity assays were performed in duplicate at each inhibitor.

[13] = target: T9, KDR (VEGFR-2) (Homo sapiens, UniProt P35968); assay: Kinase Selectivity Profiling System TK-1 / ADP-Glo, KDR; format: biochemical
T9 construct: purchased Promega
Method: as §4

T1 sequence (P04626 23-1255): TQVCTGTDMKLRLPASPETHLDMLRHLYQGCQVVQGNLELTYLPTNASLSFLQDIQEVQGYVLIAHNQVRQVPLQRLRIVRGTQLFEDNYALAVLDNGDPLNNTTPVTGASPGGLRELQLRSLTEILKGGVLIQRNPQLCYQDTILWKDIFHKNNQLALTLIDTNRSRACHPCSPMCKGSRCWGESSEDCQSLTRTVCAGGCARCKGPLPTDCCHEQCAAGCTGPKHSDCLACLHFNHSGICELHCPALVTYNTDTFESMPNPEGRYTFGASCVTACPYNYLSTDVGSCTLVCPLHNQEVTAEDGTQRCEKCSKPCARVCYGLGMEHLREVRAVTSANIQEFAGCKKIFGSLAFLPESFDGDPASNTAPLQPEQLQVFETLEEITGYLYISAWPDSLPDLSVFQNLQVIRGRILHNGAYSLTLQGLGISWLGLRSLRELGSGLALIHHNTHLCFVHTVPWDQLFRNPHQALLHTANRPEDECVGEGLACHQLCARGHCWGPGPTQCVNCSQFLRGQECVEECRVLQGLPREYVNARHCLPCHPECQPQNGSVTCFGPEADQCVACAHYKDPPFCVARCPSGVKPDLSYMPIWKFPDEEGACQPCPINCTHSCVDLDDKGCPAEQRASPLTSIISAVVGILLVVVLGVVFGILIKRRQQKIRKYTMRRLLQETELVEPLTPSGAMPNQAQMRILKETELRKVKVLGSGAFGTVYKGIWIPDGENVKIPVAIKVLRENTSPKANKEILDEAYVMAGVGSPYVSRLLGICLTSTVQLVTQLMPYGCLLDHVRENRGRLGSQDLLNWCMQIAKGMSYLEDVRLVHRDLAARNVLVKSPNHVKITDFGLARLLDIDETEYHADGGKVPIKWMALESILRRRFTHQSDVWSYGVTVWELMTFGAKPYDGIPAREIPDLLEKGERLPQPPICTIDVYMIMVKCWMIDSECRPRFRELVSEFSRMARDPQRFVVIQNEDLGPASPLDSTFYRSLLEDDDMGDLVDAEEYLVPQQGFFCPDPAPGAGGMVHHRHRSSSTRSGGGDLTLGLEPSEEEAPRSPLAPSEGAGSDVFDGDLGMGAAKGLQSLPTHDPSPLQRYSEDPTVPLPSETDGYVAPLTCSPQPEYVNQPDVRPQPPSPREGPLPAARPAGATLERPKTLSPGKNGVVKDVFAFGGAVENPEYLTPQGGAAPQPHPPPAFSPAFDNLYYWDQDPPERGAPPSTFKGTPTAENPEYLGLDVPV
T9 sequence (P35968 20-1356): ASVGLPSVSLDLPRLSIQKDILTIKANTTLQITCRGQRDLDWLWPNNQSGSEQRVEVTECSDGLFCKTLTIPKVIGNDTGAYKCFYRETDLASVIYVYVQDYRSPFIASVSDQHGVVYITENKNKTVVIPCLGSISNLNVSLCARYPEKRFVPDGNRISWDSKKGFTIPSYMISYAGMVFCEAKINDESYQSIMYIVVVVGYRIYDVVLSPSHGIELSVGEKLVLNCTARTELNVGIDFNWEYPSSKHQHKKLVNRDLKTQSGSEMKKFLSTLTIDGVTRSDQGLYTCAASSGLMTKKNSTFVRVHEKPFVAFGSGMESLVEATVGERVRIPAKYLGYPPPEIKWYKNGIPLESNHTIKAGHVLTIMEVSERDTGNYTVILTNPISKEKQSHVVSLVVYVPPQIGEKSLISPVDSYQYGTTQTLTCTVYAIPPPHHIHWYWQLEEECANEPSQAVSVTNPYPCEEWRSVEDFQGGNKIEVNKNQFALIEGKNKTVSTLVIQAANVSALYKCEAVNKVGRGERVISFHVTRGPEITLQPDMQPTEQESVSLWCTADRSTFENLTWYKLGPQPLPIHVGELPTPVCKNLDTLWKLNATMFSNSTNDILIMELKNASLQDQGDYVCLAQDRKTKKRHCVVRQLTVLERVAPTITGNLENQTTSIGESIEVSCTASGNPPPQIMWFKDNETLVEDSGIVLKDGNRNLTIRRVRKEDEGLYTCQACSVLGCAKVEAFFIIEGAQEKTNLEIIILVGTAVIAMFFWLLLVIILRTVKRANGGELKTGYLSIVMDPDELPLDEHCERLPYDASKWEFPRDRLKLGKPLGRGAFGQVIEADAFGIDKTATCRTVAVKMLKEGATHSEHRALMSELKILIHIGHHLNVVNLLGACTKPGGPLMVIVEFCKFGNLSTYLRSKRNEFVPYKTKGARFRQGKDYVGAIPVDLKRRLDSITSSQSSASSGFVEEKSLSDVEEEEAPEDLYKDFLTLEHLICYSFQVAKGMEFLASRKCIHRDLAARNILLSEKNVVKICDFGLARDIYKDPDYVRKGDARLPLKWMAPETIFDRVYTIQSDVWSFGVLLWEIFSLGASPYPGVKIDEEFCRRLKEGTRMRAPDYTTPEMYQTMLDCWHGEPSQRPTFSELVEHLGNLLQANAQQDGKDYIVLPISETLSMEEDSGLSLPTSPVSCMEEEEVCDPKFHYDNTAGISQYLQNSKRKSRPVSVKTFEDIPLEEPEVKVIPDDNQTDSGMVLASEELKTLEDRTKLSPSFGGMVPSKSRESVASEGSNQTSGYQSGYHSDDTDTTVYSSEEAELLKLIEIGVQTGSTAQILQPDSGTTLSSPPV
T3 sequence (P00519 whole entry): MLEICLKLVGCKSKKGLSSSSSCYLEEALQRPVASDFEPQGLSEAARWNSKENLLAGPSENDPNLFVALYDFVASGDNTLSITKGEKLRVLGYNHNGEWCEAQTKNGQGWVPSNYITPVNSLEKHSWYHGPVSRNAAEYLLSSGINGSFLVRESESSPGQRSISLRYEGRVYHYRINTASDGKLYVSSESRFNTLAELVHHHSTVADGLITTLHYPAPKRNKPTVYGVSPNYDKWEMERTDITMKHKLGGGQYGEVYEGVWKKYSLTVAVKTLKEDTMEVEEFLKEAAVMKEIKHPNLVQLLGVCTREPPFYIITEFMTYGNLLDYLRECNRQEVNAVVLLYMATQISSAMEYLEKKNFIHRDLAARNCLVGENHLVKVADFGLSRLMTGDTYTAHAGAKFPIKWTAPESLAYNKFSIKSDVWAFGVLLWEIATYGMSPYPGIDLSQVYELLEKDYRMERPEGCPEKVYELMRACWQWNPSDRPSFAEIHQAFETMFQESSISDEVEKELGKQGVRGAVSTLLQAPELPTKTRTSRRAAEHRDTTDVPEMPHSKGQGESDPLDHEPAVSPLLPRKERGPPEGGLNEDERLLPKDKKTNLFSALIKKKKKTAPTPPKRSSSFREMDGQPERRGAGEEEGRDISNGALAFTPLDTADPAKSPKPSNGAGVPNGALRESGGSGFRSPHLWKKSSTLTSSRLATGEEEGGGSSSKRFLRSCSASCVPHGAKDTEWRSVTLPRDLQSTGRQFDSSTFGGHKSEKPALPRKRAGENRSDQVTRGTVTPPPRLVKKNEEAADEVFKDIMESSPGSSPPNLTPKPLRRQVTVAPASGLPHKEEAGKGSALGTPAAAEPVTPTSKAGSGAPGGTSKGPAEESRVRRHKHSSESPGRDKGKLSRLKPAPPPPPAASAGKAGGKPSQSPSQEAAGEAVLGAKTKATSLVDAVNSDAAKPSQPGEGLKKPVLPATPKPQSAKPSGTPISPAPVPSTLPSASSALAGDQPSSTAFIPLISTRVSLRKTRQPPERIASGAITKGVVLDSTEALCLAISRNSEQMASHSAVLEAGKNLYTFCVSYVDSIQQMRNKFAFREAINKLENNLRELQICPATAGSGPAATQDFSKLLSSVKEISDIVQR
T6 sequence (P08069 31-1367): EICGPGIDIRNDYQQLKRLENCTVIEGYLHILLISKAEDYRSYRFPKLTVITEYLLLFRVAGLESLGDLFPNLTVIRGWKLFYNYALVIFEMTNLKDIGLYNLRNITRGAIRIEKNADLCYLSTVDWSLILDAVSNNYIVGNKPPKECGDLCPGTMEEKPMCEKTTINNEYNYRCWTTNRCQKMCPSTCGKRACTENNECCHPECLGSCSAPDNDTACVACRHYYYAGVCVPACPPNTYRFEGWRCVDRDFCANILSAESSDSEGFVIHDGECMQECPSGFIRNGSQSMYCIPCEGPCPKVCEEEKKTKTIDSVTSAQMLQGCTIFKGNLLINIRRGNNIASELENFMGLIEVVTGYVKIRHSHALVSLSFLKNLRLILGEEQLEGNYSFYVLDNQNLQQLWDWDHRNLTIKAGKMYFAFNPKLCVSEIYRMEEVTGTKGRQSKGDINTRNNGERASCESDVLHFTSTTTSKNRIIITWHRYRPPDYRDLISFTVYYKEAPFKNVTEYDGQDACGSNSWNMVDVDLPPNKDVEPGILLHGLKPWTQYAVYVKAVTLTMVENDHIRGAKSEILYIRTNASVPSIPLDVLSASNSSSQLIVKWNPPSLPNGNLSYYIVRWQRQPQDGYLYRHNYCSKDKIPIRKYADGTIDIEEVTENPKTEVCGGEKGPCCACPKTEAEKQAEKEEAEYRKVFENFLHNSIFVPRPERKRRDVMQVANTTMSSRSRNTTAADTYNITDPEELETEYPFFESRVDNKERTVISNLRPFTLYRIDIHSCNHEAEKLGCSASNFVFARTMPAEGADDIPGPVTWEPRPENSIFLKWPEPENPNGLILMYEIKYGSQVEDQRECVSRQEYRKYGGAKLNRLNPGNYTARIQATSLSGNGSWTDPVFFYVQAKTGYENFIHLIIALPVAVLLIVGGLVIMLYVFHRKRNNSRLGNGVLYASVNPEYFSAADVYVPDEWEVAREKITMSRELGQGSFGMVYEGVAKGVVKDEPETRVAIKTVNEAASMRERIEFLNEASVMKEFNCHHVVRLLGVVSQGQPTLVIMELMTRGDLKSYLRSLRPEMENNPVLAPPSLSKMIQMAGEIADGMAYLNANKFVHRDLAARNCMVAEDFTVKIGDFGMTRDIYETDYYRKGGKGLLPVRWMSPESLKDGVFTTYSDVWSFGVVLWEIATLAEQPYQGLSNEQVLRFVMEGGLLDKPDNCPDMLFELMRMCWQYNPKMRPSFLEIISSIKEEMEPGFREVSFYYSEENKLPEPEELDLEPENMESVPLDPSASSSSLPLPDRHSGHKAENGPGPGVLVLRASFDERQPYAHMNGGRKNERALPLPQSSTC

SMILES | IC50 [1] [µM] | IC50 [3] [µM] | IC50 [4] [µM] | inhibition at 1 µM [5] [%] | inhibition at 1 µM [6] [%] | inhibition at 0.5 µM [7] [%] | inhibition at 10 µM [7] [%] | inhibition at 1 µM [8] [%] | inhibition at 1 µM [9] [%] | inhibition at 1 µM [10] [%] | melting point [°C] | inhibition at 1 µM [11] [%] | inhibition at 1 µM [12] [%] | inhibition at 1 µM [13] [%] | % Inhibition at 1 µM, HER2 [5] [%] | inhibition at 100 µM [2] [%]
Cc1cn(-c2cc(NC(=O)c3ccc(C)c(Nc4nccc(-c5cccnc5)n4)c3)cc(C(F)(F)F)c2)cn1 [Nilotinib, nilotinib, reference compound] | 55 | < 0.1 | 55 |  |  |  |  |  |  |  |  |  |  |  |  | 71
CS(=O)(=O)CCNCc1ccc(-c2ccc3ncnc(Nc4ccc(OCc5cccc(F)c5)c(Cl)c4)c3c2)o1 [Lapatinib, lapatinib, reference compound] |  |  |  | 68 | 7 |  |  | 94 |  | 0 |  | 0 | 4 |  |  | 
Cc1ccc(NC(=O)c2ccc(CN3CCN(C)CC3)cc2)cc1Nc1nccc(-c2cccnc2)n1 [Imatinib, imatinib, reference compound] |  |  |  |  |  |  |  |  |  |  |  |  |  |  |  | 99

The next lines start with results.

IC50 [1] [µM] | IC50 [3] [µM] | IC50 [4] [µM] | inhibition at 1 µM [5] [%] | inhibition at 1 µM [6] [%] | inhibition at 0.5 µM [7] [%] | inhibition at 10 µM [7] [%] | inhibition at 1 µM [8] [%] | inhibition at 1 µM [9] [%] | inhibition at 1 µM [10] [%] | melting point [°C] | inhibition at 1 µM [11] [%] | inhibition at 1 µM [12] [%] | inhibition at 1 µM [13] [%] | % Inhibition at 1 µM, HER2 [5] [%] | SMILES | inhibition at 100 µM [2] [%]
 |  |  | 0 | 36 | 38 | 14 | 0 | 17 | 0 | 268 to 270 | 0 | 22 | 0 |  | Cc1cn(-c2cc(NC(=O)c3ccc(Cn4cnc5c(N)ncnc54)cc3)cc(C(F)(F)F)c2)cn1 [Compound 12, 4-((6-Amino-9H-purin-9-yl)methyl)-N-(3-(4-methyl-1H-imidazol-1-yl)-5-(trifluoromethyl)phenyl) benzamide] | 
 |  |  | 0 | 36 | 39 | 34 | 0 | 11 | 0 |  | 0 | 45 | 2 |  | Nc1ncnc2c1ncn2Cc1ccc(C(=O)Nc2cccc(C(F)(F)F)c2)cc1 [Compound 9, 4-((6-Amino-9H-purin-9-yl)methyl)-N-(3-(trifluoromethyl)phenyl)benzamide] | 56.8
 |  |  | 0 | 6 | 15 | 36 | 0 | 13 | 0 |  | 0 | 17 | 12 |  | Cc1cn(-c2cc(NC(=O)c3ccc(Cn4cnc5c(N)nc(Cl)nc54)cc3)cc(C(F)(F)F)c2)cn1 [Compound 16, 4-((6-Amino-2-chloro-9H-purin-9-yl)methyl)-N-(3-(4-methyl-1H-imidazol-1-yl)-5-(trifluoromethyl)phenyl)benzamide] | 5.91
> 50 |  |  | 22 to 26 | 32 | 23 | 34 | 23 | 15 | 5 | 309 to 311 | 0 | 13 | 14 | 26 | Nc1nc(F)nc2c1ncn2Cc1ccc(C(=O)Nc2cccc(C(F)(F)F)c2)cc1 [Compound 8, 4-((6-Amino-2-fluoro-9H-purin-9-yl)methyl)-N-(3-(trifluoromethyl)phenyl)benzamide] | 33.5
29.7 ± 1.19 |  |  | 0 | 0 | 37 | 37 | 0 | 14 | 0 | 230 to 232 | 0 | 4 | 12 |  | Cc1cn(-c2cc(NC(=O)c3ccc(Cn4cnc5c(N)nc(F)nc54)cc3)cc(C(F)(F)F)c2)cn1 [Compound 11, 4-((6-Amino-2-fluoro-9H-purin-9-yl)methyl)-N-(3-(4-methyl-1H-imidazol-1-yl)-5-(trifluoromethyl)phenyl)benzamide] | 93.4
